Experimental data published in US12251373B2, “Compounds and methods of treating retinal degeneration” (CASE WESTERN RESERVE UNIVERSITY, priority 2017, dated 2025).
pEC50: −log10 of the molar value. Where two headings read alike, the source gives them in different places.

Columns and labels:
Format in all cases: cell-based
mouse P23H opsin = target: T1, mouse P23H opsin (Mus musculus, UniProt P15409, P23H); assay: Immunostain and image-based high-content analysis of P23H mutant opsin in NIH3T3 cells; details: ratio of P23H rod opsin fluorescence on plasma membrane to whole cell; for pEC50: read-out: Immunostaining HCS MEM-Total ratio EC50
T1 construct: expressed in transfected cells
Excerpt: Three NIH3T3 stable cell lines, NIH3T3-(WT-opsin/GFP), NIH3T3-(P23H-opsin/GFP), and NIH3T3-(GFP) were previously generated which stably express mouse WT opsin and GFP; P23H opsin and GFP; and only GFP, respectively. GFP is expressed separately from opsin in these cell lines. NIH3T3 cells were from ATCC. DNA constructs for generating these stable cell lines were confirmed by Sanger sequencing. Expression of GFP was confirmed by green fluorescence imaging, and expression of P23H and WT opsin were confirmed by immunoblots.
To characterize the effect of active compounds on the localization of P23H mutant opsin in mammalian cells, an image-based assay was used with cells immunostained for WT or P23H mutant opsin protein. Briefly, NIH3T3-(P23H-opsin/GFP) or NIH3T3-(WT-opsin/GFP) cells were seeded at 5,000 cells per well in a 384-well cell-carrier plate (PerkinElmer) and incubated at 37° C. with 5% CO2 for 2 h. Cells were treated with compounds as described for the β-Gal fragment complementation assay and incubated in assay medium for 24 h. The assay medium then was aspirated, and cells were fixed with 4% paraformaldehyde at 20 μL per well for 20 min at RT. Cells were immunostained in one of two ways: cell membranes were either permeabilized with 0.1% Triton X-100 for 15 min or left intact and then were incubated with 10% goat serum (Life Technologies). To detect opsin on the cell plasma membrane only, intact cells were immunostained with 20 μL per well of 20 μg mL^−1 B6-30 anti-rhodopsin antibody that recognizes the N-terminal epitope on the extracellular side of rhodopsin. To detect total opsin, cells were permeabilized with Triton X-100 and immunostained with 50 μg mL^−1 1D4 anti-rhodopsin antibody specific for the C-terminal epitope on the intracellular side of rhodopsin. Opsin immunostaining was visualized by incubating cells with 5 μg mL^−1 Cy3-conjugated goat anti-mouse IgG antibody. Three washes with phosphate-buffered saline (PBS: 10 mM Na2HPO4, 1.8 mM KH2PO4, pH 7.4, 137 mM NaCl, and 2.7 mM KCl) were performed between each step of incubation with antibody. In the last wash with PBS, DAPI was added to each well at 300 nM. Fluorescence images were obtained with the Operetta High Content Imaging System (PerkinElmer) using a 20× long objective. Five fields were taken of each well for cell images using three channels for fluorescence: GFP (100 ms), Cy3 (300 ms), and DAPI (50 ms). Images were analyzed with Acapella software from the Columbus data storage and analysis system (PerkinElmer). For cells immunostained with opsin on the non-permeabilized cell membrane only, an average of total fluorescence intensity of Cy3 per cell was used to quantify opsin in each well of the 384-well plate. For cells immunostained with opsin in permeabilized whole cells, an average ratio of Cy3 intensity on the cell plasma membrane (PM) to that of the entire cell (opsin ratio PM-to-total) was calculated for each well of a 384-well plate to quantify opsin transport to the plasma membrane. The plasma membrane was defined within ±5% of the cell border.

P23H opsin = target: T2, P23H opsin (Mus musculus, UniProt P15409, P23H); assay: Immunoblot of P23H opsin glycosylation in NIH3T3 cells; design: key to Improved glycosylation: n = no; y = yes; details: P23H opsin
T2 construct: expressed in transfected cells
Description: NIH3T3-(P23H-opsin/GFP) or NIH3T3-(WT-opsin/GFP) cells were seeded in a 48-well plate (Corning Costar) at 3.2×10^5 cells per well and incubated at 37° C. with 5% CO2 for 2 h. One hundred-μL of assay medium containing a compound at 5× its final concentration was added to each well. The plate was gently shaken for 5 s before further incubation at 37° C. with 5% CO2 for 24 h. The assay medium then was aspirated, and cells were lysed with 100 μL per well PBS containing 0.1% Triton X-100 and complete protease inhibitor cocktail (Roche, Basel, Switzerland) followed by sonication for 3 s. Protein concentrations were determined with the Bradford assay. For PNGase F catalyzed deglycosylation, 3 μL of PNGase F (1,500 U, NEB) was added to the cell lysate and the mixture was incubated at room temperature for 1 h before immunoblotting. For NIH3T3-(P23H-opsin/GFP) cells, 15 μg of total protein were loaded per well onto an SDS-polyacrylamide gel; whereas for NIH3T3-(WT-opsin/GFP) cells, 10 μg of total protein was loaded per well. Opsin protein was immunostained with 0.2 μg mL^−1 horseradish peroxidase-conjugated 1D4 anti-rhodopsin antibody. Band intensities were measured with ImageJ software (http://imagej.nih.gov/ij/; National the Institutes of Health, Bethesda, MD, USA) and normalized to a glyceraldehyde 3-phosphate dehydrogenase (GAPDH) loading control.

mouse P23H opsin mutant = mouse P23H opsin mutant (Mus musculus, UniProt P15409, P23H); assay: β-Gal fragment complementation assay: rescue of P23H opsin transport from ER to plasma membrane, U2OS(PLC-EA/P23H-PK) cells; details: for Emax: U2OS
Excerpt: U2OS(PLC-EA/P23H-PK) cells. A U2OS stable cell line was generated by DiscoveRx, Inc. (Fremont, CA, USA) for the β-Gal fragment complementation assay used in the small molecule HTS for rescue of P23H opsin transport. U2OS cells that continually express P23H-PK and PLC-EA fusion proteins were generated. Briefly, this small subunit of […] (PK fragment) was fused to the C-terminal of the mouse P23H opsin mutant, while the large EA fragment, a subunit of […], was fused with PLC, a plasma membrane anchored peptide. Both constructs were subcloned by DicoveRx, Inc. and transferred into U2OS cells by viral infections. Positive clones were selected under treatment with hygromycin and geneticin.
Briefly, U2OS(PLC-EA/P23H-PK) cells were suspended in assay medium at 3×10^5 cells mL^−1. The cell suspension was dispensed into 384-well plates (Greiner Bio-one, Monroe, NC, USA) at 20 μL per well, with a Multidrop dispenser (Thermo Scientific, Waltham, MA, USA). Plates with cells then were centrifuged at 200 g for 15 s before incubation at 37° C. with 5% CO2. Plates were removed 24 h later for treatment with tested compounds. A total of 248 plates containing 79,080 compounds from three small molecule libraries were paired with an equal number of assay plates with cultured cells. Due to a limited capacity, these plates were assayed in seven batches. An average of 56.3 nL of 10 mM compound in DMSO was dispensed into each well from column 3 to 22 of paired assay plates using a 50 nL 384-pintool system, such that the final concentration of each compound was 22.52 μM on average. […] Each assay plate was shaken for 5 s before further incubation at 37° C. with 5% CO2. […] Assay plates were incubated in the dark for 60-90 min, and luminescence was read from each assay plate with an Envision microplate reader (PerkinElmer) during a 0.1 s per well integration time. The mean and s.d. of readouts in column 2 of each plate were calculated as Mean0% and SD0%, whereas the average and s.d. of readouts in column 23 were calculated as Mean100% and SD100%. Equation 1: Activity scores (%)=(RLUcp−Mean0%)/(Mean100%−Mean0%)×100%, where RLUcp is the relative luminescence unit derived for cells treated with a compound. Equation 2: Z′-factor=1-3×(SD0%+SD100%)/(Mean100%−Mean0%); Equation 3: signal-to-background (S/B) ratio=Mean100%/Mean0%. Activities of all tested compounds were registered with their compound ID by GeneData Screener (Genedata, Basel, Switzerland) and Pipeline Pilot software (Accelrys, San Diego, CA, USA). Hits, cherry-picked from a separate stock dose-dependent activity test, were selected with an activity score cutoff at 20%. Activity of each hit was tested again with the β-Gal fragment complementation assay in a 10-dose series with each dose tested in triplicate. The 10 doses tested were 80, 40, 20, 10, 5, 2.5, 1.25, 0.625, 0.313, and 0.156 μM. Dose-dependent curves of each hit compound were fitted with GeneData and Origin software.
Detailed synthetic steps are described in FIG. 18. […] YC-002-YC-021 were purchased from commercial vendors including Enamine LLC (Monmouth Jct., NJ, USA), Matrix Scientific (Columbia, SC, USA) and Tokyo Chemical Industry Co., Ltd. (Portland, OR, USA). […] Activities of YC compounds were tested with the β-Gal fragment complementation assay, as described in a prior section. All YC compounds were tested at 10 doses, each in triplicate: 80, 40, 20, 10, 5, 2.5, 1.25, 0.625, 0.313, and 0.156 μM.

[1] = Table 1, experimental maximum, read-out: β-Gal fragment complementation assay Activity score (%) Max (Exp)
[2] = Table 1, fitted maximum, read-out: β-Gal fragment complementation assay Activity score (%) Max (fit)
[3] = read-out: β-Gal fragment complementation assay Activity score (%) EC50
[4] = Table 3, modifications at C4 of the furan-2(5H)-one ring, read-out: Potency
[5] = Table 5, more than one site modified, read-out: Potency
[6] = Table 2, modifications at C3 of the furan-2(5H)-one ring, read-out: Potency EC50

SMILES | Immunostaining HCS MEM-Total ratio Max (fit) (mouse P23H opsin) | pEC50 (mouse P23H opsin) | Improved glycosylation (P23H opsin) | Emax (mouse P23H opsin mutant; [1]) [%] | Emax (mouse P23H opsin mutant; [2]) [%] | pEC50 (mouse P23H opsin mutant; [3]) | Emax (mouse P23H opsin mutant; read-out: Efficacy (%)) [%] | further results
O=C(NCCn1ncc2c(NCc3ccco3)ncnc21)c1cc(-c2ccccc2)on1 [Compound F2902-1134] | 0.031 | 5.38 | n | 23.1 | 31.5 | 4.67 |  | 
COCCNC(=O)c1sc2c(cnc3ccc(OC)cc32)c1-c1ccccc1 [Compound F3382-5924] | 0.046 | 5.62 | y | 931 | 155 | 4.54 |  | 
O=C(Cn1c2c(c(=O)n(C3CCCCC3)c1=O)CCC2)Nc1cccc(F)c1 [Compound F5111-0031] | 0.025 | 5.17 | y | 60.4 | 165 | 4.27 |  | 
O=C(C1CC1)N(CCn1cccn1)c1nc2c(Cl)cccc2s1 [Compound F5581-0240] | 0.010 | 6.19 | y | 244 | 230 | 5.23 |  | 
O=C(NCCCOc1cccc2cccnc12)c1cc(-c2ccccc2)on1 [Compound F5875-0200] | 0.041 | 5.21 | n | 31.8 | 51.6 | 4.60 |  | 
O=C(NCCCn1cccc1)c1cc(-c2ccccc2)on1 [Compound F5937-0207] | 0.021 | 5.88 | n | 32.8 | 37.3 | 5.08 |  | 
O=C1OCC(c2cccs2)=C1c1cccs1 [YC-002] |  |  |  |  |  |  | 6 | pEC50 (mouse P23H opsin mutant; [4]): 4.48
O=C1OCC(c2ccc(Cl)cc2)=C1c1cccs1 [YC-003] |  |  |  |  |  |  | 5 | pEC50 (mouse P23H opsin mutant; [4]): 4.66
O=C1OCC(c2ccc(Br)s2)=C1c1ccc(Cl)c(Cl)c1 [YC-008] |  |  |  |  |  |  | 11 | pEC50 (mouse P23H opsin mutant; [5]): 4.60
O=C1OCC(c2ccc(Br)s2)=C1c1ccc(F)cc1 [YC-009] |  |  |  |  |  |  | 10 | pEC50 (mouse P23H opsin mutant; [5]): 5.14
O=C1OCC(c2ccc(Br)s2)=C1c1ccc(Cl)cc1 [YC-011] |  |  |  |  |  |  | 10 | pEC50 (mouse P23H opsin mutant; [5]): 5.12
O=C1OCC(c2ccc(Cl)s2)=C1c1ccccc1[N+](=O)[O-] [YC-013] |  |  |  |  |  |  | 111 | pEC50 (mouse P23H opsin mutant; [6]): 4.96
Cc1sc(C)c(C2C(=O)OC(=O)C2c2c(C)sc(C)c2C)c1C (centres unmarked) [YC-018] |  |  |  |  |  |  | 95 | 
O=C1OCC(c2ccc(F)s2)=C1c1cccs1 [YC-021] |  |  |  |  |  |  | 160 | pEC50 (mouse P23H opsin mutant; [4]): 3.99
O=C1OCC(c2ccc(Cl)s2)=C1c1ccccc1Cl [YC-032] |  |  |  |  |  |  | 288 | pEC50 (mouse P23H opsin mutant; [6]): 5.24
COc1ccccc1C1=C(c2ccc(Cl)s2)COC1=O [YC-033] |  |  |  |  |  |  | 38.3 | pEC50 (mouse P23H opsin mutant; [6]): 5.07
O=C1OCC(c2ccc(Cl)s2)=C1c1cccc(Cl)c1 [YC-034] |  |  |  |  |  |  | 43.5 | pEC50 (mouse P23H opsin mutant; [6]): 5.32
O=C1OCC(c2ccc(Cl)s2)=C1c1ccccn1 [YC-043] |  |  |  |  |  |  | 214 | pEC50 (mouse P23H opsin mutant; [6]): 4.72
O=C1OCC(c2ccc(F)cc2)=C1c1cccs1 [YC-044] |  |  |  |  |  |  | 10 | pEC50 (mouse P23H opsin mutant; [4]): 4.42
O=C1OCC(c2ccco2)=C1c1cccs1 [YC-049] |  |  |  |  |  |  |  | Efficacy (%) (mouse P23H opsin mutant; Table 3, normalized to 5 μM 9-cis-retinal): 112%
